Laboratory results from patent US20190365951A1, “HUMAN CARDIAC TISSUE CONSTRUCT, RELATED METHODS AND USES” (FUNDACIÓ INSTITUTE DE BIOENGINYERIA DE CATALUNYA (IBEC), priority 2018, published 2019).

What was measured:
hERG ion channels = hERG ion channels (Homo sapiens, UniProt Q12809); settings: HEK293, CHO; Mathur, A. et al, 2015; cited from earlier work
CardioSlice constructs [1] = tested on: CardioSlice constructs
Experimental: All chemicals were dissolved in distilled water to make stock solutions, and serial dilutions were made in RPMI (Invitrogen) culture medium. To test changes in the β-adrenergic response, 1 μM isoproterenol was injected to the bioreactor circuit through the luer injection port (Inycom). For cholinergic stimulation, 10 μM carbachol was injected, and sotalol was added at 10 μM to evaluate the blockade of hERG current (Braam, S. R. et al, 2013). Spontaneous activity of cardiac constructs was recorded as baseline period. Cardiac constructs were treated with pharmacological agents during 10 min for immediate analysis, followed by 5 min washout for isoproterenol and carbachol, and 15 min for sotalol.
Electrocardiogram (ECG)-like signals were acquired through the three electrodes configuration built in the custom-made cell culture chamber and using an advanced transducer amplifier. The gold electrode acted as internal reference, and electrical activity of cardiac macrotissues was acquired using the gold and graphite electrodes. In particular, “Amplifier I” acquires activity between: “Graphite+ and Reference”; and “Amplifier II” acquires activity between: “Graphite+ and Graphite−” (FIG. 8). The obtained ECG-like signal is generated by the sum of the synchronized action potentials of all cardiomyocytes. Its shape is similar to regular surface ECG signals for humans, including the presence of the QRS complex and T wave (FIG. 4a). […] ECG-like signal recordings were monitored and stored in a computer using the AcqKnowledge software v.4.1 (BIOPAC, Santa Barbara, Calif., USA), and were analyzed with MATLAB (v. R2014b, Natick, Mass., USA). ECG-like signals were recorded at a sampling frequency of 12.5 kHz, and were filtered and decimated at a sampling rate of 500 Hz.
Recorded ECG-like signals were bandpass filtered (zero-phase fourth-order Butterworth filter with cut-off frequencies of 0.2 and 125 Hz), to use the main bandwidth of the classical electrocardiographic studies. […] Beat-to-beat fiducial points were detected and then signal averaging techniques were applied to estimate the main pattern of each ECG-like signal, enabling analysis and interpretation of QRS complex, T wave and QT interval (FIG. 4a and FIG. 5c).
During the experiments involving drug treatment, instantaneous beat rate expressed as beats per minute (bpm) was calculated over ECG-like signals, generated in both control and CardioSlice constructs at baseline and after drug application. Beat rate was assessed by measuring the RR interval, which is the time elapsing between two consecutive R waves in the electrocardiogram. Relative beat rate to baseline was calculated to evaluate the behavior of cardioactive drug effects.

[2] = tested on: Control constructs (non-stimulated human cardiac macrotissues); assay: ECG-like signal recording of non-stimulated human cardiac macrotissues under drug treatment; format: cell-based; settings: 10 μM sotalol, 10 min treatment, day 14 of culture
Source text: Isoproterenol, carbachol and sotalol were purchased from Sigma-Aldrich.

CardioSlice constructs [3] = assay: Chronotropic/contractile response by video area-oscillation analysis (custom MATLAB program); format: cell-based, human
Experimental: FIG. 11. Chronotropic responses of human cardiac macrotissues to the proarrhythmic drug sotalol. Changes in the beat rate were analyzed through custom MATLAB program at different incubation times (from 0 min to 40 min). The area in pixels of each construct was obtained, and its oscillation was represented over time (relative to the highest number of pixels recorded). (a) Sotalol effects on non-stimulated cardiac constructs (Control). (b) Sotalol effects on electrically stimulated cardiac constructs (CardioSlice).
Contractile function of cardiac macrotissues in spontaneous beating and in response to electric field stimulation was assessed in a set-up equivalent to one previously described (Tandon, N. et al, 2009; Tandon, N. et al, 2011). […] The space between the electrodes was filled with Tyrode's salts solution (Sigma-Aldrich Quimica), and cardiac macrotissues were imaged and video recorded using a Stereo Microscope Leica MZ10F (Leica Microsystems) with a DFC4025C Digital Microscope Camera (Leica Microsystems). […] To measure the amplitude of contraction of each cardiac macrotissue, spontaneous beating of the constructs was recorded for at least 10 s. Then, the Fractional Area Change (FAC) of 10 beats was calculated using a custom MATLAB program (v. R2014b, Natick, Mass., USA) as previously described (Tandon, N. et al., 2009). […]

Chain of hERG ion channels (Q12809 whole entry): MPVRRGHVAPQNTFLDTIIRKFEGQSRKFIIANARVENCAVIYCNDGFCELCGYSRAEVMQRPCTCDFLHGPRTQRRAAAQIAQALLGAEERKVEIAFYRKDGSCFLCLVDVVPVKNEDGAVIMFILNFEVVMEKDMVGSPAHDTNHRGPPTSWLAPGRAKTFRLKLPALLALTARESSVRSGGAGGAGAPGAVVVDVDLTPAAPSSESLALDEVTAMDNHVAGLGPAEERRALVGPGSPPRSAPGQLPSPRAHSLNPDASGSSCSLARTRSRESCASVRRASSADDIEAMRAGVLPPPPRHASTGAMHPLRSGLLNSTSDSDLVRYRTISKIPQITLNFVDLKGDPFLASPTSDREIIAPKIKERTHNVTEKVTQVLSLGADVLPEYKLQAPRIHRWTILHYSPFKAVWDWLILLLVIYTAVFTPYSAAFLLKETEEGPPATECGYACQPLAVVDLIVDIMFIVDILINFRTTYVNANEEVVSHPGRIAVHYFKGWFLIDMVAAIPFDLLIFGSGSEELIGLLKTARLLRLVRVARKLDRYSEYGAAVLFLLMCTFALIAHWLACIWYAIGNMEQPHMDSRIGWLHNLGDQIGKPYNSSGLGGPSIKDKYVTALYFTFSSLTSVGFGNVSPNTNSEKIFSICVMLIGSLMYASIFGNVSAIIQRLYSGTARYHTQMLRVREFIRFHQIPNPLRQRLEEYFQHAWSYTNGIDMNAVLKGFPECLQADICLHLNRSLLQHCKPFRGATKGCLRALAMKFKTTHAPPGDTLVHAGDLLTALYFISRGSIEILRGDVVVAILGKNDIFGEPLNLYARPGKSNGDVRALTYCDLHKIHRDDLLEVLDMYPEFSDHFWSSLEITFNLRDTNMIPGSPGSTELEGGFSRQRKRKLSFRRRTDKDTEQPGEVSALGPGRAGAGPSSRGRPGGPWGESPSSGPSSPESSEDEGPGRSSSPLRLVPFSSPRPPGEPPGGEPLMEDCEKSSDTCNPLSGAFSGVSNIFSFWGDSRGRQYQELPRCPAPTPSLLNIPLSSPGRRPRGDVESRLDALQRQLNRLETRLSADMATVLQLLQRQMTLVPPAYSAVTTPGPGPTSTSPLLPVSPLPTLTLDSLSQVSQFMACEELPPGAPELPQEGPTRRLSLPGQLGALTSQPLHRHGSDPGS

SMILES: COc1cc2nc(N(C)CCCNC(=O)C3CCCO3)nc(N)c2cc1OC (stereo not drawn) [alfuzosin]
- outcome of hERG safety assay versus actual cardiac safety (hERG ion channels): false negatives

SMILES: C[N+](C)(C)CCOC(N)=O [carbachol]
- beating frequency (CardioSlice constructs [1]; 10 μM carbachol, 10 min incubation, relative to baseline): statistically significant decrease

SMILES: CC(C)NCC(O)c1ccc(O)c(O)c1 (stereo not drawn) [isoproterenol]
- RR intervals (CardioSlice constructs [1]; 1 μM isoproterenol, 10 min incubation): decreased
- beating rate (CardioSlice constructs [1]; 1 μM isoproterenol, 10 min incubation, relative to baseline): statistically significant increment

SMILES: CC(C)NCC(O)c1ccc(NS(C)(=O)=O)cc1 (stereo not drawn) [sotalol]
- beating frequency [2]: random increases and decreases
- morphology of ECG-like signals [2]: no alteration
- increase of the QT interval (prolongation) (CardioSlice constructs [1]; human, 10 μM): greater than 20%
- chronotropic response (beat rate changes) (CardioSlice constructs [3]; sotalol, incubation times from 0 min to 40 min): a negative chronotropic effect can be observed, followed by a progressive emergence of cardiac arrhythmias
- contractile patterns (mechanical level) (CardioSlice constructs [3]; sotalol-treated CardioSlice constructs): dyssynchronous contractile patterns
